Reference: US12128035B2, “Activating pyruvate kinase R” (Novo Nordisk Health Care AG, priority 2021, dated 2024)
Where “and” joins values, the source holds several entries; their conditions need not be identical. Identical values can stand only once. Like-named read-outs stand apart in the source and are kept apart here.

Experiments:
[1] = cited from earlier work
[2] = target: T1, aromatase (Homo sapiens, UniProt P11511); details: Yang et al. 2018; Grace et al. 2019; cited from earlier work
T1 construct: endogenous in cells; host or cells: H295R adreno-cortical carcinoma cells; healthy human subjects in vivo
T1 sequence (P11511 1-503): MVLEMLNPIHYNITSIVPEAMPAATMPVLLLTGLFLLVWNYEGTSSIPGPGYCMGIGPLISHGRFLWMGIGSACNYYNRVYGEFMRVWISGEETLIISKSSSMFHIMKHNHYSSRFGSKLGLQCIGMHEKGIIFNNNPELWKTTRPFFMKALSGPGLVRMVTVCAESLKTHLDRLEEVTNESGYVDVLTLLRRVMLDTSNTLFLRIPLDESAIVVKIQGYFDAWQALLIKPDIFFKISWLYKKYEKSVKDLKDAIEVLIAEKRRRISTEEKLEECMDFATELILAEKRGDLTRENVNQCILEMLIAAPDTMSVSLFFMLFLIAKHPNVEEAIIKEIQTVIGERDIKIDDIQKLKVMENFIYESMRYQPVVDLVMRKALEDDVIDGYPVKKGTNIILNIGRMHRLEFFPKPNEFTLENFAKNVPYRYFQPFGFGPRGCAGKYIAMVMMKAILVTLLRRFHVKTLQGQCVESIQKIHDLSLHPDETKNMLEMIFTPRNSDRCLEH

[3] = intravenous (IV) bolus dose; cited from earlier work
[4] = target: PKR (G332S) (Homo sapiens, UniProt P30613, G332S); test: Luminescence Assay (Kinase Glo Plus) of PKR activation; assay type: biochemical; details: read-out: AC50 (PKRG332S)
Procedure: (§1) PKR Activating Compounds can be identified with the biochemical Luminescence Assay of Example 2. The PKR activating activity of a series of chemical compounds was evaluated using the Luminescence Assay below, including compounds designated Compound 1, and Compound 2, or mixtures thereof.
(§2) For each tested compound, the ability to activate PKR was determined using the following Luminescence Assay. The effect of phosphorylation of adenosine-5′-diphosphate (ADP) by PKR is determined by the Kinase Glo Plus Assay (Promega) in the presence or absence of FBP (D-fructose-1,6-diphosphate; BOC Sciences, CAS: 81028-91-3) as follows. Unless otherwise indicated, all reagents are purchased from Sigma-Aldrich. All reagents are prepared in buffer containing 50 mM Tris-HCl, 100 mM KCl, 5 mM MgCl2, and 0.01% Triton X100, 0.03% BSA, and 1 mM DTT. Enzyme and PEP (phosphoenolpyruvate) are added at 2× to all wells of an assay-ready plate containing serial dilutions of test compounds or DMSO vehicle. Final enzyme concentrations for PKR (wt), PKR(R510Q), and PKR (G332S) are 0.8 nM, 0.8 nM, and 10 nM respectively. Final PEP concentration is 100 μM. The Enzyme/PEP mixture is incubated with compounds for 30 minutes at RT before the assay is initiated with the addition of 2×ADP and KinaseGloPlus. Final concentration of ADP is 100 μM. […] For assays containing FBP, that reagent is added at 30 μM upon reaction initiation. Reactions are allowed to progress for 45 minutes at RT until luminescence is recorded by the BMG PHERAstar FS Multilabel Reader. The compound is tested in triplicate at concentrations ranging from 42.5 μM to 2.2 nM in 0.83% DMSO. AC50 measurements were obtained by the standard four parameter fit algorithm of ActivityBase XE Runner (max, min, slope and AC50). The AC50 value for a compound is the concentration (μM) at which the activity along the four parameter logistic curve fit is halfway between minimum and maximum activity.
(§3) As set forth in Table 2 below, AC50 values are defined as follows: ≤0.1 μM (+++); >0.1 μM and ≤1.0 μM (++); >1.0 μM and ≤40 μM (+); >40 μM (0).

[5] = target: PKR (wt) (Homo sapiens, UniProt P30613); test: as above; assay type: biochemical
Procedure: as §1, §2, §3

[6] = target: PKR(R510Q) (Homo sapiens, UniProt P30613, R510Q); test: as above; assay type: biochemical; details: read-out: AC50 (PKRR510Q)
Procedure: as §1, §2, §3

[7] = Phase 1: hematologic and hemolytic laboratory parameters in SCD patients; assay type: in vivo, human; details: for Hemoglobin / Indirect Bilirubin / Lactate Dehydrogenase, U/L / Reticulocytes, %: SCD 300 mg Compound 1/Placebo (blinded) once daily, individual Pt 1-3
From the text: Laboratory changes relative to pretreatment for each pt in the MD cohort as of Jul. In 2 of 3 SCD MD-1 pts treated with Compound 1/placebo (currently blinded), Hb increased by >1 g/dL, % reticulocytes decreased, and markers of hemolysis were improved after 14 days of treatment (compared to pre-treatment levels). Hematologic parameters returned to pre-treatment levels 4 to 7 days post-treatment (data not shown) without clinical AEs.
A median 1.2 g/dL Hb increase (range 0, 2.3) and a median 60% reticulocyte decrease (range −39%, −81%) over baseline were observed. The onset of the increase in Hb was rapid and continued to increase in most patients through the end of treatment, indicating the potential for additional improvement with extended dosing. […] A median 36% LDH decrease (range +18%, −57%) and a median 35% bilirubin decrease (range −7%, −63%) over baseline were observed, which is consistent with the hypothesis that Compound 1 improves RBC survival and reduces RBC turnover.

[8] = whole blood, relative to fasted state

PKR(R510Q), sequence (P30613 whole entry R510Q): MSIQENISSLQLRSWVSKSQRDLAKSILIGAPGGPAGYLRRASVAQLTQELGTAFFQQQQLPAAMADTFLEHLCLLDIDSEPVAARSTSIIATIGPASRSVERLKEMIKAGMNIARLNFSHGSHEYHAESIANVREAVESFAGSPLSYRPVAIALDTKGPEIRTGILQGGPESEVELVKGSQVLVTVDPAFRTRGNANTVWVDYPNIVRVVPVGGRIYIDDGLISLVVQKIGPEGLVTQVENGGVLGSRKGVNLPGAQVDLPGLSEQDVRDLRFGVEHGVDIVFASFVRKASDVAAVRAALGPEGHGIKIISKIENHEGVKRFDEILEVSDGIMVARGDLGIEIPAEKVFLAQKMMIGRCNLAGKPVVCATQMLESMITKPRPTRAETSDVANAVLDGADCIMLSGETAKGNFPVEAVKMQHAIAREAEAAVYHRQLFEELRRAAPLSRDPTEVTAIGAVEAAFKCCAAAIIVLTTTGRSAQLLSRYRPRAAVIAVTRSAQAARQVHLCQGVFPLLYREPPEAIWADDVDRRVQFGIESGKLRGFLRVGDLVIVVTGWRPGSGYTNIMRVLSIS
PKR (G332S), sequence (P30613 whole entry G332S): as the sequence (P30613 whole entry R510Q) above, with G332S, Q510R counted along it
PKR (wt), sequence (P30613 whole entry): as the sequence (P30613 whole entry R510Q) above, with Q510R counted along it

CC(C)n1nccc1-c1ncccc1COc1cccc(O)c1C=O [voxelotor, 2-hydroxy-6-((2-(1-isopropyl-1H-pyrazol-5-yl)pyridin-3-yl)methoxy)benzaldehyde]
increase in AUC with high-fat, high-calorie meal ([1]; plasma): 42%
increase in Cmax with high-fat, high-calorie meal ([1]; plasma): 95%
steady state AUC higher in HbSC vs HbSS genotype patients ([1]; plasma): 23%
steady state Cmax higher in HbSC vs HbSS genotype patients ([1]; plasma): 15%
increase in AUC with high-fat, high-calorie meal [1, 8]: 42%
increase in Cmax with high-fat, high-calorie meal [1, 8]: 45%
steady state AUC higher in HbSC vs HbSS genotype patients ([1]; whole blood): 50%
steady state Cmax higher in HbSC vs HbSS genotype patients ([1]; whole blood): 45%

O=C(c1ccc(NS(=O)(=O)c2cccc3cccnc23)cc1)N1CCN(CC2CC2)CC1 [AG-348]
aromatase inhibition [2]: Aromatase inhibition has been observed

NC(=O)CC[C@H](N)C(=O)O [L-glutamine, (S)-2-aminoglutaramic acid]
volume of distribution [3]: approximately 200 mL/kg

O=C([C@@H](CO)c1ccccc1)N1CC2=C(C1)CN(S(=O)(=O)c1cnc3c(c1)OCCO3)C2 (single isomer, unassigned) [Compound 2]
AC50 [4]: 1 to 40 µM
AC50 [5]: 1 to 40 µM
AC50 [6]: 1 to 40 µM

O=C([C@H](CO)c1ccccc1)N1CC2=C(C1)CN(S(=O)(=O)c1cnc3c(c1)OCCO3)C2 [Compound 1/Placebo]
Hemoglobin ([7]; Day 7 (on Tx)): 7.9 g/dL and 10.4 g/dL and 8.8 g/dL
Indirect Bilirubin ([7]; Day 7 (on Tx)): 2.5 mg/dL and 0.9 mg/dL and 0.8 mg/dL
Lactate Dehydrogenase, U/L ([7]; Day 7 (on Tx)): 148 U/L and 257 U/L and 371 U/L
Reticulocytes, % ([7]; Day 7 (on Tx)): 12.8% and 6.8% and 5.8%
Hemoglobin ([7]; Day 14/15 (EOT)): 7.5 g/dL and 11.1 g/dL and 9.2 g/dL
Indirect Bilirubin ([7]; Day 14/15 (EOT)): 3.0 mg/dL and 0.8 mg/dL and 1.0 mg/dL
Lactate Dehydrogenase, U/L ([7]; Day 14/15 (EOT)): 192 U/L and 226 U/L and 279 U/L
Reticulocytes, % ([7]; Day 14/15 (EOT)): 11.4% and 0.8% and 4.2%
patients with Hb increased by >1 g/dL ([7]; SCD MD-1, Compound 1/placebo (currently blinded), 14 days): 2 of 3
